Test results taken from patent US20110124501A1, “Active compound combinations” (Bayer CropScience AG, priority 2009, published 2011).
“And” between values parts separate entries of the source, which are not always exact repeats. Equal values may be shown once. Where a name gives a salt, the structure may show the parent alone. Read-outs that look alike come from different tables or passages of the source.

Key:
Leptosphaeria nodorum = Leptosphaeria nodorum test (wheat)/preventive; format: in vivo; settings: preventive, evaluated 8 days after inoculation
Septoria tritici = experiment: Septoria tritici-test (wheat)/preventive; format: in vivo; settings: preventive, evaluated 21 days after inoculation
Phytophthora infestans = format: in vivo
Botrytis cinerea = experiment: Botrytis test (beans)/preventive
Description: Botrytis Test (Beans)/Preventive
(§1) • Solvent: 24.5 parts by weight of acetone • 24.5 parts by weight of dimethylacetamide • Emulsifier: 1 part by weight of alkylaryl polyglycol ether
After the spray coating has dried on, 2 small pieces of agar covered with growth of Botrytis cinerea are placed on each leaf. The inoculated plants are placed in a darkened chamber at 20° C. and a relative atmospheric humidity of 100%.
2 days after the inoculation, the size of the lesions on the leaves is evaluated.

Sphaerotheca fuliginea = experiment: Sphaerotheca test (cucumbers)/preventive; format: in vivo
Venturia inaequalis = experiment: Venturia test (apples)/preventive
Description: Venturia Test (Apples)/Preventive
as §1
After the spray coating has dried on, the plants are inoculated with an aqueous conidia suspension of the causal agent of apple scab (Venturia inaequalis) and then remain for 1 day in an incubation cabinet at approximately 20° C. and a relative atmospheric humidity of 100%.
The plants are then placed in a greenhouse at approximately 21° C. and a relative atmospheric humidity of approximately 90%.
The test is evaluated 10 days after the inoculation.

Alternaria solani = experiment: Alternaria test (tomatoes)/preventive; format: in vivo
Pyrenophora teres = experiment: Pyrenophora teres-test (barley)/preventive; format: in vivo; settings: preventive, evaluated 8 days after inoculation
[1] = tested on: Blumeria graminis fsp. hordei; experiment: Blumeria test (barley)/preventive; format: in vivo
Description: After the spray coating has been dried, the plants are dusted with spores of Blumeria graminis fsp. hordei.

Plasmopara viticola = experiment: Plasmopara test (grapevines)/preventive; format: in vivo
Puccinia triticina = experiment: Puccinia triticina-test (wheat)/preventive; format: in vivo; settings: preventive, evaluated 8 days after inoculation

## Fc1ccc([C@]2(Cn3cncn3)O[C@H]2c2ccccc2Cl)cc1 (racemic) [(1.12), epoxiconazole]
Leptosphaeria nodorum; 31.25 ppm a.i.
  Efficacy in % found: 71%
Septoria tritici; 62.5 ppm a.i.
  Efficacy in % found: 71%

## C[C@@]1(c2ccc(Oc3ccccc3)cc2)OC(=O)N(Nc2ccccc2)C1=O (racemic) [(3.6), famoxadone]
Phytophthora infestans; application rate 0.4 ppm a.i.
  Efficacy in % found: 0%

## CC1(C(=O)Nc2ccc(O)c(Cl)c2Cl)CCCCC1 [(1.16), fenhexamid]
Botrytis cinerea; application rate 10 ppm a.i.
  Efficacy in % found: 0%

## O=c1c2cc(F)ccc2nc(-n2cncn2)n1-c1ccc(Cl)cc1Cl [(1.19), fluquinconazole]
Leptosphaeria nodorum; 31.25 ppm a.i.
  Efficacy in % found: 43%
Septoria tritici; 62.5 ppm a.i.
  Efficacy in % found: 86%
Sphaerotheca fuliginea; application rate 1 ppm a.i.
  Efficacy in % found: 78%

## Cn1cc(C(=O)Nc2ccc(F)cc2-c2ccc(Cl)c(Cl)c2)c(C(F)F)n1 [(2.2), bixafen]
Venturia inaequalis; application rate 1 ppm a.i.
  Efficacy in % found: 64%

## O=C(NCCc1ncc(C(F)(F)F)cc1Cl)c1ccccc1C(F)(F)F [(2.6), fluopyram]
Alternaria solani; application rate 1 ppm a.i.
  Efficacy in % found: 55%
Pyrenophora teres; 31.25 ppm a.i.
  Efficacy in % found: 88%
Septoria tritici; 31.25 ppm a.i.
  Efficacy in % found: 80%
Sphaerotheca fuliginea; application rate 4 ppm a.i.
  Efficacy in % found: 0%
Venturia inaequalis; application rate 2 ppm a.i.
  Efficacy in % found: 28%

## CC(C)C1C2CCC1c1c(NC(=O)c3cn(C)nc3C(F)F)cccc12 (stereo not drawn) [(2.10), isopyrazam]
Alternaria solani; application rate 0.5 ppm a.i.
  Efficacy in % found: 50%
Venturia inaequalis; application rate 1 ppm a.i.
  Efficacy in % found: 49%

## Cc1nn(C)c(F)c1C(=O)Nc1ccccc1C(C)CC(C)C (stereo not drawn) [(2.19), penflufen]
Alternaria solani; application rate 1 ppm a.i.
  Efficacy in % found: 30%
[1]; application rate 125 ppm a.i.
  Efficacy in % found: 67% and 56%
Sphaerotheca fuliginea; application rate 4 ppm a.i.
  Efficacy in % found: 0%
Venturia inaequalis; application rate 4 ppm a.i.
  Efficacy in % found: 0%

## CC(C)CC(C)c1sccc1NC(=O)c1cn(C)nc1C(F)(F)F (stereo not drawn) [(2.20), penthiopyrad]
Alternaria solani; application rate 0.5 ppm a.i.
  Efficacy in % found: 53%
Venturia inaequalis; application rate 2 ppm a.i.
  Efficacy in % found: 41%

## Cn1cc(C(=O)Nc2ccccc2C2CC2C2CC2)c(C(F)F)n1 (stereo not drawn) [(2.21), sedaxane]
Alternaria solani; application rate 1 ppm a.i.
  Efficacy in % found: 40%
Venturia inaequalis; application rate 2 ppm a.i.
  Efficacy in % found: 69%

## Cn1cc(C(=O)Nc2ccccc2-c2cc(F)c(F)c(F)c2)c(C(F)F)n1 [(2.45), 3-(difluoromethyl)-1-methyl-N-(3′,4′,5′-trifluorobiphenyl-2-yl)-1H-pyrazole-4-carboxamide]
Sphaerotheca fuliginea; application rate 2 ppm a.i.
  Efficacy in % found: 30%

## CO/C=C(/C(=O)OC)c1ccccc1Oc1cc(Oc2ccccc2C#N)ncn1 [(3.2), azoxystrobin]
Alternaria solani; application rate 0.25 ppm a.i.
  Efficacy in % found: 50%
Leptosphaeria nodorum; 31.25 ppm a.i.
  Efficacy in % found: 67%
Leptosphaeria nodorum; 62.5 ppm a.i.
  Efficacy in % found: 86%
Sphaerotheca fuliginea; application rate 1 ppm a.i.
  Efficacy in % found: 10%

## Cc1ccc(-c2c(Cl)nc(C#N)n2S(=O)(=O)N(C)C)cc1 [(3.3), cyazofamid]
Plasmopara viticola; application rate 0.4 ppm a.i.
  Efficacy in % found: 0%

## CSC1=N[C@@](C)(c2ccccc2)C(=O)N1Nc1ccccc1 [(3.7), fenamidone]
Phytophthora infestans; application rate 0.2 ppm a.i.
  Efficacy in % found: 0%

## CO/N=C(/C1=NOCCO1)c1ccccc1Oc1ncnc(Oc2ccccc2Cl)c1F [(3.8), fluoxastrobin]
Alternaria solani; application rate 2 ppm a.i.
  Efficacy in % found: 70%
Leptosphaeria nodorum; 31.25 ppm a.i.
  Efficacy in % found: 71%
Septoria tritici; 62.5 ppm a.i.
  Efficacy in % found: 71%
Venturia inaequalis; application rate 0.5 ppm a.i.
  Efficacy in % found: 88%

## COC(=O)N(OC)c1ccccc1COc1ccn(-c2ccc(Cl)cc2)n1 [(3.13), pyraclostrobin]
Leptosphaeria nodorum; 31.25 ppm a.i.
  Efficacy in % found: 57%
Sphaerotheca fuliginea; application rate 1 ppm a.i.
  Efficacy in % found: 0%
Puccinia triticina; 62.5 ppm a.i.
  Efficacy in % found: 63%

## CON=C(C(=O)OC)c1ccccc1CON=C(C)c1cccc(C(F)(F)F)c1 [(3.17), trifloxystrobin]
Alternaria solani; application rate 2 ppm a.i.
  Efficacy in % found: 60%
Pyrenophora teres; 62.5 ppm a.i.
  Efficacy in % found: 75%
Sphaerotheca fuliginea; application rate 2 ppm a.i.
  Efficacy in % found: 27%
Puccinia triticina; 62.5 ppm a.i.
  Efficacy in % found: 78%

## CCC(C)(NC(=O)c1cc(Cl)c(C)c(Cl)c1)C(=O)CCl (stereo not drawn) [(4.9), zoxamide]
Plasmopara viticola; application rate 0.4 ppm a.i.
  Efficacy in % found: 0%

## N#Cc1c(Cl)c(Cl)c(Cl)c(C#N)c1Cl [(5.4), chlorothalonil]
Alternaria solani; application rate 50 ppm a.i.
  Efficacy in % found: 24%
Venturia inaequalis; application rate 25 ppm a.i.
  Efficacy in % found: 83%

## O=C1c2ccccc2C(=O)N1SC(Cl)(Cl)Cl [(5.9), folpet]
Botrytis cinerea; application rate 12.5 ppm a.i.
  Efficacy in % found: 11%

## [Cl-].[Cu+2].[Cu+2].[OH-].[OH-].[OH-] [(5.15), copper oxychloride]
Alternaria solani; application rate 50 ppm a.i.
  Efficacy in % found: 41%
Venturia inaequalis; application rate 50 ppm a.i.
  Efficacy in % found: 40%

## [Cu+2].[OH-].[OH-] [(5.16), copper hydroxide]
Alternaria solani; application rate 50 ppm a.i.
  Efficacy in % found: 47%
Venturia inaequalis; application rate 25 ppm a.i.
  Efficacy in % found: 57%

## Cc1cc(C)nc(Nc2ccccc2)n1 [(7.7), pyrimethanil]
Botrytis cinerea; application rate 50 ppm a.i.
  Efficacy in % found: 11%

## COc1ccc(C(=CC(=O)N2CCOCC2)c2ccc(Cl)cc2)cc1OC [(9.2), dimethomorph]
Plasmopara viticola; application rate 0.2 ppm a.i.
  Efficacy in % found: 0%

## Cc1ccc(C(C)NC(=O)[C@@H](NC(=O)OC(C)C)C(C)C)cc1 (stereo partly drawn) [(9.4), iprovalicarb]
Plasmopara viticola; application rate 0.4 ppm a.i.
  Efficacy in % found: 0%

## C#CCOc1ccc(CCNC(=O)C(OCC#C)c2ccc(Cl)cc2)cc1OC (stereo not drawn) [(9.5), mandipropamid]
Plasmopara viticola; application rate 0.1 ppm a.i.
  Efficacy in % found: 14%
Plasmopara viticola; application rate 0.2 ppm a.i.
  Efficacy in % found: 25%

## CCCOC(=O)NCCCN(C)C [(10.11), propamocarb-hydrochloride]
Phytophthora infestans; application rate 10 ppm a.i.
  Efficacy in % found: 0%

## COC(=O)[C@@H](C)N(C(=O)Cc1ccccc1)c1c(C)cccc1C [(12.2), benalaxyl-M]
Plasmopara viticola; application rate 0.2 ppm a.i.
  Efficacy in % found: 0%
Plasmopara viticola; application rate 0.4 ppm a.i.
  Efficacy in % found: 0%

## COCC(=O)N(c1c(C)cccc1C)[C@H](C)C(=O)OC [(12.10), metalaxyl-M]
Plasmopara viticola; application rate 0.4 ppm a.i.
  Efficacy in % found: 57%

## O=[N+]([O-])c1cc(C(F)(F)F)c(Cl)c([N+](=O)[O-])c1Nc1ncc(C(F)(F)F)cc1Cl [(14.2), fluazinam]
Phytophthora infestans; application rate 0.5 ppm a.i.
  Efficacy in % found: 0%

## CCCCCCCCc1c(CC)nc2ncnn2c1N [(15.1), ametoctradin]
Phytophthora infestans; application rate 0.5 ppm a.i.
  Efficacy in % found: 0%

## CCNC(=O)NC(=O)/C(C#N)=N/OC [(15.7), cymoxanil]
Phytophthora infestans; application rate 1 ppm a.i.
  Efficacy in % found: 0%

## O=C(NCc1ncc(C(F)(F)F)cc1Cl)c1c(Cl)cccc1Cl [(15.17), fluopicolide]
Plasmopara viticola; application rate 0.4 ppm a.i.
  Efficacy in % found: 43%

## CCO[PH](=O)O [(15.20), fosetyl-Al]
Phytophthora infestans; application rate 10 ppm a.i.
  Efficacy in % found: 3%

## C#CCCOC(=O)Nc1cccc(CO/N=C(/c2ccccc2)c2nnnn2C)n1 [(15.96), but-3-yn-1-yl {6-[({[(Z)-(1-methyl-1H-tetrazol-5-yl)(phenyl)methylene]amino}oxy)methyl]pyridin-2-yl}carbamate]
Plasmopara viticola; application rate 0.4 ppm a.i.
  Efficacy in % found: 46%
Phytophthora infestans; application rate 0.2 ppm a.i.
  Efficacy in % found: 53%

## O=C(OCc1c(F)cccc1Cl)c1csc(C2CCN(C(=O)Cn3nc(C(F)F)cc3C(F)F)CC2)n1 [(I-16)]
Plasmopara viticola; application rate 0.2 ppm a.i.
  Efficacy in % found: 29%
Plasmopara viticola; application rate 0.4 ppm a.i.
  Efficacy in % found: 0%
Alternaria solani; application rate 25 ppm a.i.
  Efficacy in % found: 30%
Alternaria solani; application rate 200 ppm a.i.
  Efficacy in % found: 47%
[1]; application rate 1000 ppm a.i.
  Efficacy in % found: 0%
Leptosphaeria nodorum; 1000 ppm a.i.
  Efficacy in % found: 0%
Pyrenophora teres; 500 ppm a.i.
  Efficacy in % found: 0%
Pyrenophora teres; 1000 ppm a.i.
  Efficacy in % found: 25% and 13%
Sphaerotheca fuliginea; application rate 25 ppm a.i.
  Efficacy in % found: 30%
Sphaerotheca fuliginea; application rate 50 ppm a.i.
  Efficacy in % found: 30%
Phytophthora infestans; application rate 0.2 ppm a.i.
  Efficacy in % found: 70%
Phytophthora infestans; application rate 0.4 ppm a.i.
  Efficacy in % found: 61% and 74%
Puccinia triticina; 500 ppm a.i.
  Efficacy in % found: 13%
Puccinia triticina; 1000 ppm a.i.
  Efficacy in % found: 38%
Venturia inaequalis; application rate 200 ppm a.i.
  Efficacy in % found: 33%
Botrytis cinerea; application rate 50 ppm a.i.
  Efficacy in % found: 0%
Botrytis cinerea; application rate 200 ppm a.i.
  Efficacy in % found: 0%

## boscalid [(2.3)]
Puccinia triticina; 250 ppm a.i.
  Efficacy in % found: 38%
Puccinia triticina; 500 ppm a.i.
  Efficacy in % found: 56%

## fenpiclonil [(13.1)]
Leptosphaeria nodorum; 500 ppm a.i.
  Efficacy in % found: 71%
Pyrenophora teres; 500 ppm a.i.
  Efficacy in % found: 88%

## fludioxonil [(13.2)]
Leptosphaeria nodorum; 250 ppm a.i.
  Efficacy in % found: 43%
Pyrenophora teres; 125 ppm a.i.
  Efficacy in % found: 88%
Botrytis cinerea; application rate 10 ppm a.i.
  Efficacy in % found: 15%

## mancozeb [(5.19)]
Alternaria solani; application rate 12.5 ppm a.i.
  Efficacy in % found: 18%
Alternaria solani; application rate 50 ppm a.i.
  Efficacy in % found: 76%
Venturia inaequalis; application rate 12.5 ppm a.i.
  Efficacy in % found: 53%

## phosphorous acid and its salts [(15.62)]
Phytophthora infestans; application rate 10 ppm a.i.
  Efficacy in % found: 19%

## propiconazole [(1.40)]
Sphaerotheca fuliginea; application rate 2 ppm a.i.
  Efficacy in % found: 78%
Puccinia triticina; 125 ppm a.i.
  Efficacy in % found: 78%

## propineb [(5.23)]
Alternaria solani; application rate 50 ppm a.i.
  Efficacy in % found: 53%

## prothioconazole [(1.41)]
Leptosphaeria nodorum; 62.5 ppm a.i.
  Efficacy in % found: 43%
Septoria tritici; 125 ppm a.i.
  Efficacy in % found: 86%
Sphaerotheca fuliginea; application rate 0.5 ppm a.i.
  Efficacy in % found: 37%

## spiroxamine [(1.46)]
[1]; application rate 250 ppm a.i.
  Efficacy in % found: 94%
Puccinia triticina; 500 ppm a.i.
  Efficacy in % found: 56%

## tebuconazole [(1.47)]
Pyrenophora teres; 125 ppm a.i.
  Efficacy in % found: 38%
Sphaerotheca fuliginea; application rate 4 ppm a.i.
  Efficacy in % found: 67%
Venturia inaequalis; application rate 4 ppm a.i.
  Efficacy in % found: 43%

## triadimenol [(1.51)]
Leptosphaeria nodorum; 250 ppm a.i.
  Efficacy in % found: 50% and 43%
